Assay results published in patent publication US6197769A, “Indazole amide compounds as serotoninergic agents” (Aziende Chimiche Riunite Angelini Francesco A.C.R.A.F. …, priority 1997, dated 2001).
Where a name gives a salt, the structure may show the parent alone.

Biological target: T1, 5-HT4 Receptor (Rattus norvegicus, UniProt Q62758)
T1 construct: serotonin-induced relaxation of rat oesophageal tunica; from tissue; host or cells: rat oesophageal tunica
Test: Antagonistic action on 5-HT4 receptor: inhibition of serotonin-induced relaxation of rat oesophageal tunica pre-contracted with carbachol
Conditions: antagonism, read-out: pA2 (converted)
Method: Antagonistic Action on 5-HT4 Receptor
The antagonistic action of the compounds of the formula (I) was evaluated by testing the influence of the compound under evaluation on serotonin-induced relaxation of rat oesophageal tunica pre-contracted with carbachol according to the method described by J. D. Gale et al. in "Br. J. Pharmacol.", 111, 332-338, (1994).

T1 sequence (Q62758 whole entry): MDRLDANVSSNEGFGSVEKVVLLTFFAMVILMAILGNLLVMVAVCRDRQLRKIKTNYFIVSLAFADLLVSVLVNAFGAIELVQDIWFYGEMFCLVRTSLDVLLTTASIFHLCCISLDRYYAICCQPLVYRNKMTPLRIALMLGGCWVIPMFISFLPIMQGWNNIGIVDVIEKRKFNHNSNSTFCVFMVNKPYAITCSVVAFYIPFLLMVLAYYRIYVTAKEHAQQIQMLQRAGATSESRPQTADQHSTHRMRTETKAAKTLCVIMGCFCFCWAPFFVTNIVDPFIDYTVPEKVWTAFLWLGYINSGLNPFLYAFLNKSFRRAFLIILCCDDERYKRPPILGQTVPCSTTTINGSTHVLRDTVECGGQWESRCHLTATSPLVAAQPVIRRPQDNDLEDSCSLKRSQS

| SMILES | Kb [pM] |
| --- | --- |
| CC(C)n1nc(C(=O)NCC2CCN(CCCCc3ccccc3)CC2)c2ccccc21 [AFR 603, N3-{[1-(4-phenylbutyl)-4-piperidinyl]methyl}-1-isopropyl-1H-3-indazolecarboxamide oxalate] | 759 |
| CC(C)n1nc(C(=O)NCC2CCN(CCc3ccccc3)CC2)c2ccccc21 [AFR 306, N3-{[1-(2-phenylethyl)-4-piperidinyl]methyl}-1-isopropyl-1H-3-indazolecarboxamide hydrochloride] | 437 |
| CC(C)n1nc(C(=O)NCC2CCN(CCc3ccccn3)CC2)c2ccccc21 [AFR 605, N3-({1-[2-(2-pyridinyl)ethyl]4-piperidinyl}methyl)-1-isopropyl-1H-3-indazolecarboxamide hydrochloride] | 15.8 |
| CC(C)n1nc(C(=O)NCC2CCN(CCC3CCCCC3)CC2)c2ccccc21 [AFR 604, N3-{[1-(2-cyclohexylethyl)-4-piperidinyl]methyl}-1-isopropyl-1H-3-indazolecarboxamide hydrochloride] | 6460 |
